Measurements as given in patent US20200345733A1, “Microbicidal Pyrimidine or Triazine Containing Compounds” (Janssen Sciences Ireland UC, priority 2002, published 2020).

Assay: White rabbit vaginal irritation and toxicity study (10 days)
Type: in vivo
Settings: female rabbits, 10 days after application; animals with finding
Experimental: Gel formulations of the compound B at different concentrations were used to study the exclusion of any irritation in a Rabbit Vaingal Irritation test. 10 days after the application of the gel formulations onto 6 different rabbit groups, vaginal and cervical epithelium were carefully examined by a pathologist macroscopically and histologically. The following scores were determined.

Nonoxynol-9 [Nonoxynol-9, 4%]
Cervical examination: Epithelial loss and atrophy, Marked: 3 | Cervical examination: Epithelial loss and atrophy, Slight: 1 | Cervical examination: Epithelial loss and atrophy, Total: 4a | Cervical examination: Luminal Inflammatory cells, Present: 4 | Cervical examination: Luminal Inflammatory cells, Total: 4a | Vaginal examination: Epithelial inflammatory infiltrate, Minimal: 3 | Vaginal examination: Epithelial inflammatory infiltrate, Slight: 2 | Vaginal examination: Epithelial inflammatory infiltrate, Total: 5a | Vaginal examination: Epithelial loss and atrophy, Marked: 2 | Vaginal examination: Epithelial loss and atrophy, Severe: 3 | Vaginal examination: Epithelial loss and atrophy, Total: 5b
